Results from PubChem BioAssay AID1963858 (Molecular Pharmacology Branch, DTP, NCI, 2024).

System: HOP-62 multicell spheroids with HUVEC/MSC, viability
Experiment: Anticancer human tumor HOP-62 cell line growth inhibition [KRAS2];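 note: viability read after a week of compound exposure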;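 for viability, T/C: 100% = DMSO vehicle-treated spheroids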
Conditions: for IC50: curve of first compound; for viability, T/C: stronger effect = lower value
Method in brief: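 Combination screen of spheroid viability in tumor-cell co-cultures with endothelial (HUVEC) and mesenchymal stem cell stroma. Each agent was tested in half-log dilutions, topping at clinical Cmax or at 10 microM without a known Cmax.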

[1] = second compound 0.1 µM, first compound 0.0316 µM
[2] = second compound 0.1 µM, first compound 0.1 µM
[3] = second compound 0.1 µM, first compound 0.316 µM
[4] = second compound 0.1 µM, first compound 1 µM
[5] = second compound 0.1 µM, first compound 3.16 µM
[6] = second compound 0.1 µM, first compound 10 µM
[7] = second compound 0.316 µM, first compound 0.0316 µM
[8] = second compound 0.316 µM, first compound 0.1 µM
[9] = second compound 0.316 µM, first compound 0.316 µM
[10] = second compound 0.316 µM, first compound 1 µM
[11] = second compound 0.316 µM, first compound 3.16 µM
[12] = second compound 0.316 µM, first compound 10 µM
[13] = second compound 1 µM, first compound 0.0316 µM
[14] = second compound 1 µM, first compound 0.1 µM
[15] = second compound 1 µM, first compound 0.316 µM
[16] = second compound 1 µM, first compound 1 µM
[17] = second compound 1 µM, first compound 3.16 µM
[18] = second compound 1 µM, first compound 10 µM
[19] = second compound 3.16 µM, first compound 0.0316 µM
[20] = second compound 3.16 µM, first compound 0.1 µM
[21] = second compound 3.16 µM, first compound 0.316 µM
[22] = second compound 3.16 µM, first compound 1 µM
[23] = second compound 3.16 µM, first compound 3.16 µM
[24] = second compound 3.16 µM, first compound 10 µM
[25] = second compound 10 µM, first compound 0.0316 µM
[26] = second compound 10 µM, first compound 0.1 µM
[27] = second compound 10 µM, first compound 0.316 µM
[28] = second compound 10 µM, first compound 1 µM
[29] = second compound 10 µM, first compound 3.16 µM
[30] = second compound 10 µM, first compound 10 µM
[31] = second compound 0.1 µM, first compound 0.000316 µM
[32] = second compound 0.1 µM, first compound 0.001 µM
[33] = second compound 0.1 µM, first compound 0.00316 µM
[34] = second compound 0.1 µM, first compound 0.01 µM
[35] = second compound 0.316 µM, first compound 0.000316 µM
[36] = second compound 0.316 µM, first compound 0.001 µM
[37] = second compound 0.316 µM, first compound 0.00316 µM
[38] = second compound 0.316 µM, first compound 0.01 µM
[39] = second compound 1 µM, first compound 0.000316 µM
[40] = second compound 1 µM, first compound 0.001 µM
[41] = second compound 1 µM, first compound 0.00316 µM
[42] = second compound 1 µM, first compound 0.01 µM
[43] = second compound 3.16 µM, first compound 0.000316 µM
[44] = second compound 3.16 µM, first compound 0.001 µM
[45] = second compound 3.16 µM, first compound 0.00316 µM
[46] = second compound 3.16 µM, first compound 0.01 µM
[47] = second compound 10 µM, first compound 0.000316 µM
[48] = second compound 10 µM, first compound 0.001 µM
[49] = second compound 10 µM, first compound 0.00316 µM
[50] = second compound 10 µM, first compound 0.01 µM

Structure (SMILES) | IC50 (second compound 0.1 µM) [nM] | IC50 (second compound 0.316 µM) [nM] | IC50 (second compound 1 µM) [nM] | IC50 (second compound 3.16 µM) [nM] | IC50 (second compound 10 µM) [nM] | viability, T/C [1] [%] | viability, T/C [2] [%] | viability, T/C [3] [%] | viability, T/C [4] [%] | viability, T/C [7] [%] | viability, T/C [8] [%] | viability, T/C [9] [%] | viability, T/C [10] [%] | viability, T/C [13] [%] | viability, T/C [14] [%] | viability, T/C [15] [%] | viability, T/C [19] [%] | viability, T/C [20] [%] | viability, T/C [25] [%] | viability, T/C [26] [%] | other results
CC(C)NCC(C(=O)N1CCN(c2ncnc3c2C(C)CC3O)CC1)c1ccc(Cl)cc1 (stereo not given) + CC1OCC2(CCN(c3cnc(Sc4ccnc(N)c4Cl)c(N)n3)CC2)C1N | 389 | 235 | 52.1 | < 31.6 | < 31.6 | 88.7 | 81.9 | 53.5 | 27.6 | 65.7 | 66.2 | 43.4 | 21.7 | 55.9 | 42.3 | 20.5 | 37.6 | 27.2 | 25.7 | 20.4 | viability, T/C [5]: 11.3%; viability, T/C [6]: 7.62%; viability, T/C [11]: 8.04%; viability, T/C [12]: 5.81%; viability, T/C [16]: 7.92%; viability, T/C [17]: 6.64%; viability, T/C [18]: 4.61%; viability, T/C [21]: 13%; viability, T/C [22]: 7.62%; viability, T/C [23]: 4.7%; viability, T/C [24]: 3.86%; viability, T/C [27]: 14.5%; viability, T/C [28]: 7.49%; viability, T/C [29]: 4.67%; viability, T/C [30]: 3.48%
CC(C)n1nc(-c2ccc3oc(N)nc3c2)c2c(N)ncnc21 + CC1OCC2(CCN(c3cnc(Sc4ccnc(N)c4Cl)c(N)n3)CC2)C1N | 1.56 | 0.678 | 0.392 | < 0.316 | < 0.316 | 12.4 | 8.07 |  |  | 10 | 7.36 |  |  | 8.66 | 6.23 |  | 6.71 | 4.89 | 5.54 | 4.55 | viability, T/C [31]: 76.5%; viability, T/C [32]: 65.1%; viability, T/C [33]: 25.9%; viability, T/C [34]: 16.4%; viability, T/C [35]: 69.2%; viability, T/C [36]: 40.2%; viability, T/C [37]: 21.3%; viability, T/C [38]: 12%; viability, T/C [39]: 54.4%; viability, T/C [40]: 30.5%; viability, T/C [41]: 11.9%; viability, T/C [42]: 8.81%; viability, T/C [43]: 26.6%; viability, T/C [44]: 22.4%; viability, T/C [45]: 10.6%; viability, T/C [46]: 7.28%; viability, T/C [47]: 22.5%; viability, T/C [48]: 18.2%; viability, T/C [49]: 10.6%; viability, T/C [50]: 7%
CC1(C)CCC(CN2CCN(c3ccc(C(=O)NS(=O)(=O)c4ccc(NCC5CCOCC5)c([N+](=O)[O-])c4)c(Oc4cnc5[nH]ccc5c4)c3)CC2)=C(c2ccc(Cl)cc2)C1 + CC1OCC2(CCN(c3cnc(Sc4ccnc(N)c4Cl)c(N)n3)CC2)C1N | 3720 | 3280 | 1310 | < 31.6 | < 31.6 | 76.5 | 73 | 70 | 72 | 72.3 | 62.2 | 68.3 | 67.6 | 62.3 | 54.4 | 52 | 47.9 | 45 | 37.5 | 32.9 | viability, T/C [5]: 54.3%; viability, T/C [6]: 17.2%; viability, T/C [11]: 51.1%; viability, T/C [12]: 12.6%; viability, T/C [16]: 50.1%; viability, T/C [17]: 44.6%; viability, T/C [18]: 10.6%; viability, T/C [21]: 36.6%; viability, T/C [22]: 26.7%; viability, T/C [23]: 18.1%; viability, T/C [24]: 10.7%; viability, T/C [27]: 32%; viability, T/C [28]: 26.6%; viability, T/C [29]: 26.5%; viability, T/C [30]: 6.62%
CCN1CCN(Cc2ccc(Nc3ncc(F)c(-c4cc(F)c5nc(C)n(C(C)C)c5c4)n3)nc2)CC1 + CC1OCC2(CCN(c3cnc(Sc4ccnc(N)c4Cl)c(N)n3)CC2)C1N | > 1000 | 370 | 67.5 | < 3.16 | < 3.16 | 87.1 | 83.7 | 75.4 | 50.8 | 73.1 | 73 | 49 | 37.2 | 53 | 42.1 | 42.7 | 33.5 | 27 | 23.4 | 21.5 | viability, T/C [33]: 104%; viability, T/C [34]: 93.8%; viability, T/C [37]: 96.8%; viability, T/C [38]: 76.6%; viability, T/C [41]: 65.3%; viability, T/C [42]: 73.2%; viability, T/C [16]: 25.9%; viability, T/C [45]: 33.7%; viability, T/C [46]: 41.3%; viability, T/C [21]: 25.7%; viability, T/C [22]: 20.1%; viability, T/C [49]: 32.6%; viability, T/C [50]: 27.4%; viability, T/C [27]: 23.9%; viability, T/C [28]: 13.9%
COc1cc2nccc(Oc3ccc(NC(=O)C4(C(=O)Nc5ccc(F)cc5)CC4)cc3)c2cc1OC + CC1OCC2(CCN(c3cnc(Sc4ccnc(N)c4Cl)c(N)n3)CC2)C1N | 7770 | 2260 | 31.6 | < 31.6 | < 31.6 | 88.3 | 83 | 88 | 91.1 | 81.8 | 67.3 | 73.4 | 84.1 | 43.5 | 50.5 | 49.4 | 33.2 | 24.1 | 30.8 | 19.3 | viability, T/C [5]: 77.8%; viability, T/C [6]: 42.2%; viability, T/C [11]: 38.9%; viability, T/C [12]: 33.5%; viability, T/C [16]: 52.7%; viability, T/C [17]: 19%; viability, T/C [18]: 27.5%; viability, T/C [21]: 16.4%; viability, T/C [22]: 17%; viability, T/C [23]: 15.9%; viability, T/C [24]: 9.51%; viability, T/C [27]: 20.4%; viability, T/C [28]: 16.8%; viability, T/C [29]: 11.6%; viability, T/C [30]: 16.7%
Cn1ncnc1[C@H]1c2n[nH]c(=O)c3cc(F)cc(c23)N[C@@H]1c1ccc(F)cc1 + CC1OCC2(CCN(c3cnc(Sc4ccnc(N)c4Cl)c(N)n3)CC2)C1N | > 100 | > 100 | 1.39 | < 0.316 | < 0.316 | 80.2 | 73 |  |  | 72.5 | 52.6 |  |  | 32.7 | 37.9 |  | 17.5 | 22.5 | 24.1 | 21.1 | viability, T/C [31]: 88.7%; viability, T/C [32]: 97.9%; viability, T/C [33]: 94.1%; viability, T/C [34]: 87.1%; viability, T/C [35]: 86.5%; viability, T/C [36]: 66.8%; viability, T/C [37]: 62.7%; viability, T/C [38]: 69.3%; viability, T/C [39]: 65.2%; viability, T/C [40]: 56.9%; viability, T/C [41]: 29.8%; viability, T/C [42]: 31.4%; viability, T/C [43]: 40.6%; viability, T/C [44]: 31.7%; viability, T/C [45]: 37%; viability, T/C [46]: 23.7%; viability, T/C [47]: 36.9%; viability, T/C [48]: 30.3%; viability, T/C [49]: 31%; viability, T/C [50]: 27.5%
